Tested on: mesenchymal stem cells
Test: Sandwich ELISA of cTnT after ex vivo differentiation of rat MSCs by PTK inhibitor treatment
Assay type: cell-based
Conditions: rat MSCs cultured 9 days with 1 μM or 10 μM compound
Method: For the second subculture, MSCs were dispensed on a 60 mm plate at 2×10^5 cells/ml using the identical medium as above, treated with N-(3-bromophenyl)-6,7-diethoxyquinazoline-4-amine (Sigma), a protein tyrosine kinase (PTK) inhibitor, at a final concentration of 1 μM or 10 μM. The cells were cultured for 9 days, wherein the medium was replaced once every three days with a fresh medium containing the aforementioned compound.
100 ng of capture antibodies were bound to polyvinyl chloride (PVC) and microtiter high-binding plate (96 wells) at 4° C. overnight. The plate was washed twice with PBS, capture antibodies were blocked with PBS containing 5% BSA overnight under moist air at the room temperature. The plate was washed twice with PBS, and 5 ug of cell lysates together with blocking buffer was added to each well. The plate was incubated at 37° C. for 1.5 hours. The plate was washed 4 times with PBS containing 0.02% Tween-20. Upon adding detector antibodies, the plate was incubated under moist air and the room temperature for 2 hours, and washed 4 times with PBS containing 0.02% Tween-20. […] After 10 minutes, the reaction was stopped by adding 25 ul of 0.1M H2SO4, then the absorbance at 450 nm was immediately measured with an ELISA plate reader (Bio-Rad). […]

## CCOc1cc2ncnc(Nc3cccc(Br)c3)c2cc1OCC [compound #23, N-(3-bromophenyl)-6,7-diethoxyquinazoline-4-amine]
  differentiation into myocardial cells (sandwich ELISA, FIG. 13): increases depending on the concentration
Sandwich ELISA, FIG. 13
  expression ratio of cardiac troponin T (cTnT): increasing expression ratio of cardiac troponin T (cTnT) by the method dependent on dosage

Source: patent US20130164847A1, “USE OF A PROTEIN TYROSINE KINASE INHIBITOR FOR INDUCING THE DIFFERENTIATION OF MESENCHYMAL STEM CELLS INTO CARDIOGENIC CELLS” (PHARMICELL. CO., LTD., priority 2010, published 2013)
